Results reported in US8541407B2 (ArQule, Inc., priority 2010, dated 2013).
pIC50: −log10 of the molar value. Counter-ions that a name gives are not always drawn.

Target: AKT1 (Homo sapiens (Human), UniProt P31749)
Test: Inactive Akt Alpha Screen Assay
Details: non *labeled: Akt Alpha Screen assay; read-out: AKT1 biochemical assay, IC50
How it was run: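 AKT1 activated in situ by PDK1, MAPKAPK2, lipid vesicles and ATP, then phosphorylating biotinylated crosstide for 30 min at room temperature. Stopped with 10 mM EDTA; phosphopeptide detected by AlphaScreen using phospho-AKT substrate antibody (1:350), Protein A acceptor and streptavidin donor beads, 90 min dark, ex 640/em 570 nm.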

Sequence of AKT1 (P31749 whole entry): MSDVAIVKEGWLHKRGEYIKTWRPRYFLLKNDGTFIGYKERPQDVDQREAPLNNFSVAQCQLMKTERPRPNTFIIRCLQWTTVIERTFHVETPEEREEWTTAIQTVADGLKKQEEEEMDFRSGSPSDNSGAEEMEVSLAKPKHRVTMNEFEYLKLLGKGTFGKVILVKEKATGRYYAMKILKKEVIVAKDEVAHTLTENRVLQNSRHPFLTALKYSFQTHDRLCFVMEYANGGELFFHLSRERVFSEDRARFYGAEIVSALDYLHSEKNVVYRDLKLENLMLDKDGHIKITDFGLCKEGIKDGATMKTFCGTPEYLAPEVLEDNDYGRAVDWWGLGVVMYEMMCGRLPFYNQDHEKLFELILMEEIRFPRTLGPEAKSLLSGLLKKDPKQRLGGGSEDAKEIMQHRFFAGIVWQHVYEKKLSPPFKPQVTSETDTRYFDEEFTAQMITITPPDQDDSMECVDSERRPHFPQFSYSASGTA

| SMILES | pIC50 |
| --- | --- |
| Fc1ccccc1N1CCN(Cc2ccc(-c3nnc4n3-c3cccnc3Nc3ccccc3-4)cc2)CC1 [Example 67, 3-(4-((4-(2-fluorophenyl)piperazin-1-yl)methyl)phenyl)-9H-benzo[f]pyrido[2,3-b][1,2,4]triazolo[4,3-d][1,4]diazepine] | 5.55 |
| c1ccc(CN2CCN(Cc3ccc(-c4nnc5n4-c4cccnc4Nc4ccccc4-5)cc3)CC2)cc1 [Example 82, 3-(4-((4-benzylpiperazin-1-yl)methyl)phenyl)-9H-benzo[f]pyrido[2,3-b][1,2,4]triazolo[4,3-d][1,4]diazepine] | 5.28 |
| O=C(Cc1cccc2ccccc12)Nc1ccc(-c2nnc3n2-c2cccnc2Nc2ccccc2-3)cc1 [Example 35, N-(4-(9H-benzo[f]pyrido[2,3-b][1,2,4]triazolo[4,3-d][1,4]diazepin-3-yl)phenyl)-2-(naphthalen-1-yl)acetamide] | 6.02 |
| O=C(Nc1ccc(-c2nnc3n2-c2cccnc2Nc2ccccc2-3)cc1)c1cccnc1 [Example 40, N-(4-(9H-benzo[f]pyrido[2,3-b][1,2,4]triazolo[4,3-d][1,4]diazepin-3-yl)phenyl)nicotinamide] | 6.59 |
| c1ccc2c(c1)Nc1ncccc1-n1c(-c3ccc(CNC4CCC4)cc3)nnc1-2 [Example 69, N-(4-(9H-benzo[f]pyrido[2,3-b][1,2,4]triazolo[4,3-d][1,4]diazepin-3-yl)benzyl)cyclobutanamine] | 5.35 |
| O=C(Nc1ccc(-c2nnc3n2-c2cccnc2Nc2ccccc2-3)cc1)c1ccncc1 [Example 58, N-(4-(9H-benzo[f]pyrido[2,3-b][1,2,4]triazolo[4,3-d][1,4]diazepin-3-yl)phenyl)isonicotinamide] | 6.46 |
| CN1c2ccccc2-c2nnc(-c3ccc4ccccc4c3)n2-c2ccccc21 [Example 14, hydrochloride] | 4.17 |
| O=C(Nc1ccc(-c2nnc3n2-c2cccnc2Nc2ccccc2-3)cc1)c1ccco1 [Example 50, N-(4-(9H-benzo[f]pyrido[2,3-b][1,2,4]triazolo[4,3-d][1,4]diazepin-3-yl)phenyl)furan-2-carboxamide] | 6.89 |
| O=C(NCc1ccc(-c2nnc3n2-c2cccnc2Nc2ccccc2-3)cc1)C1CCC1 [Example 100, N-(4-(9H-benzo[f]pyrido[2,3-b][1,2,4]triazolo[4,3-d][1,4]diazepin-3-yl)benzyl)cyclobutanecarboxamide] | 5.74 |
| NC1(c2ccc(-c3nnc4n3-c3cccnc3Nc3ccccc3-4)cc2)CCCCC1 [Example 217, 1-(4-(9H-benzo[f]pyrido[2,3-b][1,2,4]triazolo[4,3-d][1,4]diazepin-3-yl)phenyl)cyclohexanamine] | 6.30 |
| c1ccc2c(c1)Nc1ncccc1-n1c(-c3ccc(CN4CCOCC4)cc3)nnc1-2 [Example 84, 4-(4-(9H-benzo[f]pyrido[2,3-b][1,2,4]triazolo[4,3-d][1,4]diazepin-3-yl)benzyl)morpholine] | 5.80 |
| Nc1ccc(-c2nnc3n2-c2cccnc2Nc2ccccc2-3)cc1 [Example 11, hydrochloride] | 6.14 |
| Clc1ccc(-c2nnc3n2-c2cccnc2Nc2ccccc2-3)cc1 [Example 9, hydrochloride] | 5.29 |
| Fc1cccc(F)c1-c1nnc2n1-c1cccnc1Nc1ccccc1-2 [Example 16] | 4.55 |
| O=C(Nc1ccc(-c2nnc3n2-c2cccnc2Nc2ccccc2-3)cc1)c1cc2ccccc2s1 [Example 42, N-(4-(9H-benzo[f]pyrido[2,3-b][1,2,4]triazolo[4,3-d][1,4]diazepin-3-yl)phenyl)benzo[b]thiophene-2-carboxamide] | 6.44 |
| O=C(c1ccc(-c2nnc3n2-c2cccnc2Nc2ccccc2-3)cc1)N1CCC(n2c(=O)[nH]c3ccccc32)CC1 [Example 26, 1-(1-(4-(9H-benzo[f]pyrido[2,3-b][1,2,4]triazolo[4,3-d][1,4]diazepin-3-yl)benzoyl)piperidin-4-yl)-1H-benzo[d]imidazol-2(3H)-one] | 6.10 |
| O=C(CCc1ccccc1)Nc1ccc(-c2nnc3n2-c2cccnc2Nc2ccccc2-3)cc1 [Example 54, N-(4-(9H-benzo[f]pyrido[2,3-b][1,2,4]triazolo[4,3-d][1,4]diazepin-3-yl)phenyl)-3-phenylpropanamide] | 5.74 |
| O=C(NCc1ccc(-c2nnc3n2-c2cccnc2Nc2ccccc2-3)cc1)c1ccc(F)cc1 [Example 95, N-(4-(9H-benzo[f]pyrido[2,3-b][1,2,4]triazolo[4,3-d][1,4]diazepin-3-yl)benzyl)-4-fluorobenzamide] | 6.52 |

Continued, values first:

| pIC50 | SMILES |
| --- | --- |
| 5.70 | N#Cc1cccc(C(=O)N2CCN(Cc3ccc(-c4nnc5n4-c4cccnc4Nc4ccccc4-5)cc3)CC2)c1 [Example 159, 3-(4-(4-(9H-benzo[f]pyrido[2,3-b][1,2,4]triazolo[4,3-d][1,4]diazepin-3-yl)benzyl)piperazine-1-carbonyl)benzonitrile] |
| 6.18 | Cc1cccc(NC(=O)NC2CCN(Cc3ccc(-c4nnc5n4-c4cccnc4Nc4ccccc4-5)cc3)CC2)c1 [Example 170, 1-(1-(4-(9H-benzo[f]pyrido[2,3-b][1,2,4]triazolo[4,3-d][1,4]diazepin-3-yl)benzyl)piperidin-4-yl)-3-(m-tolyl)urea] |
| 5.92 | COc1ccc(NC(=O)NC2CCN(Cc3ccc(-c4nnc5n4-c4cccnc4Nc4ccccc4-5)cc3)CC2)cc1Cl [Example 172, 1-(1-(4-(9H-benzo[f]pyrido[2,3-b][1,2,4]triazolo[4,3-d][1,4]diazepin-3-yl)benzyl)piperidin-4-yl)-3-(3-chloro-4-methoxyphenyl)urea] |
| 5.16 | O=C(c1ccc2c(c1)OCO2)N1CCN(Cc2ccc(-c3nnc4n3-c3cccnc3Nc3ccccc3-4)cc2)CC1 [Example 158, (4-(4-(9H-benzo[f]pyrido[2,3-b][1,2,4]triazolo[4,3-d][1,4]diazepin-3-yl)benzyl)piperazin-1-yl)(benzo[d][1,3]dioxol-5-yl)methanone] |
| 6.11 | COc1cccc(CNC(=O)NC2CCN(Cc3ccc(-c4nnc5n4-c4cccnc4Nc4ccccc4-5)cc3)CC2)c1 [Example 171, 1-(1-(4-(9H-benzo[f]pyrido[2,3-b][1,2,4]triazolo[4,3-d][1,4]diazepin-3-yl)benzyl)piperidin-4-yl)-3-(3-methoxybenzyl)urea] |
| 5.21 | NCc1ccc(-c2nnc3n2-c2cccnc2Nc2ccc(Br)cc2-3)cc1 [Example 227, (4-(12-bromo-9H-benzo[f]pyrido[2,3-b][1,2,4]triazolo[4,3-d][1,4]diazepin-3-yl)phenyl)methanamine] |
| 5.24 | O=S(=O)(NCCc1ccc(-c2nnc3n2-c2cccnc2Nc2ccccc2-3)cc1)c1ccccc1 [Example 108, N-(4-(9H-benzo[f]pyrido[2,3-b][1,2,4]triazolo[4,3-d][1,4]diazepin-3-yl)phenethyl)benzenesulfonamide] |
| 6.85 | NC1(c2ccc(-c3nnc4n3-c3cccnc3Nc3ccccc3-4)cc2)CC1 [Example 222, 1-(4-(9H-benzo[f]pyrido[2,3-b][1,2,4]triazolo[4,3-d][1,4]diazepin-3-yl)phenyl)cyclopropanamine] |
| 6.08 | c1ccc(OC2CCN(Cc3ccc(-c4nnc5n4-c4cccnc4Nc4ccccc4-5)cc3)CC2)cc1 [Example 188, 3-(4-((4-phenoxypiperidin-1-yl)methyl)phenyl)-9H-benzo[f]pyrido[2,3-b][1,2,4]triazolo[4,3-d][1,4]diazepine] |
| 6.85 | O=S(=O)(NCc1ccc(-c2nnc3n2-c2cccnc2Nc2ccccc2-3)cc1)c1ccccc1 [Example 101, N-(4-(9H-benzo[f]pyrido[2,3-b][1,2,4]triazolo[4,3-d][1,4]diazepin-3-yl)benzyl)benzenesulfonamide] |
| 5.68 | Cc1cc(COCc2ccc(-c3nnc4n3-c3cccnc3Nc3ccccc3-4)cc2)no1 [Example 185, 3-(((4-(9H-benzo[f]pyrido[2,3-b][1,2,4]triazolo[4,3-d][1,4]diazepin-3-yl)benzyl)oxy)methyl)-5-methylisoxazole] |
| 6.12 | O=S(=O)(NC1(c2ccc(-c3nnc4n3-c3cccnc3Nc3ccccc3-4)cc2)CCC1)c1cccc(F)c1 [Example 204, N-(1-(4-(9H-benzo[f]pyrido[2,3-b][1,2,4]triazolo[4,3-d][1,4]diazepin-3-yl)phenyl)cyclobutyl)-3-fluorobenzenesulfonamide] |
| 6.15 | COc1ccccc1NC(=O)NC1CCN(Cc2ccc(-c3nnc4n3-c3cccnc3Nc3ccccc3-4)cc2)CC1 [Example 183, 1-(1-(4-(9H-benzo[f]pyrido[2,3-b][1,2,4]triazolo[4,3-d][1,4]diazepin-3-yl)benzyl)piperidin-4-yl)-3-(2-methoxyphenyl)urea] |
| 5.96 | O=C(NCc1ccc(-c2nnc3n2-c2cccnc2Nc2ccccc2-3)cc1)Nc1cccc(F)c1 [Example 122, 1-(4-(9H-benzo[f]pyrido[2,3-b][1,2,4]triazolo[4,3-d][1,4]diazepin-3-yl)benzyl)-3-(3-fluorophenyl)urea] |
| 5.19 | CC(C)CS(=O)(=O)NC1CCN(Cc2ccc(-c3nnc4n3-c3cccnc3Nc3ccccc3-4)cc2)CC1 [Example 154, N-(1-(4-(9H-benzo[f]pyrido[2,3-b][1,2,4]triazolo[4,3-d][1,4]diazepin-3-yl)benzyl)piperidin-4-yl)-2-methylpropane-1-sulfonamide] |
| 6.08 | COc1ccc(NC(=O)NC2CCN(Cc3ccc(-c4nnc5n4-c4cccnc4Nc4ccccc4-5)cc3)CC2)c(C)c1 [Example 184, 1-(1-(4-(9H-benzo[f]pyrido[2,3-b][1,2,4]triazolo[4,3-d][1,4]diazepin-3-yl)benzyl)piperidin-4-yl)-3-(4-methoxy-2-methylphenyl)urea] |
| 5.28 | O=S(=O)(NC1CCN(Cc2ccc(-c3nnc4n3-c3cccnc3Nc3ccccc3-4)cc2)CC1)C1CC1 [Example 149, N-(1-(4-(9H-benzo[f]pyrido[2,3-b][1,2,4]triazolo[4,3-d][1,4]diazepin-3-yl)benzyl)piperidin-4-yl)cyclopropanesulfonamide] |
